Assay [1] has as its target T1, Inhibitor of nuclear factor kappa-B kinase subunit beta (Homo sapiens, UniProt O14920).
T1 sequence (O14920 whole entry): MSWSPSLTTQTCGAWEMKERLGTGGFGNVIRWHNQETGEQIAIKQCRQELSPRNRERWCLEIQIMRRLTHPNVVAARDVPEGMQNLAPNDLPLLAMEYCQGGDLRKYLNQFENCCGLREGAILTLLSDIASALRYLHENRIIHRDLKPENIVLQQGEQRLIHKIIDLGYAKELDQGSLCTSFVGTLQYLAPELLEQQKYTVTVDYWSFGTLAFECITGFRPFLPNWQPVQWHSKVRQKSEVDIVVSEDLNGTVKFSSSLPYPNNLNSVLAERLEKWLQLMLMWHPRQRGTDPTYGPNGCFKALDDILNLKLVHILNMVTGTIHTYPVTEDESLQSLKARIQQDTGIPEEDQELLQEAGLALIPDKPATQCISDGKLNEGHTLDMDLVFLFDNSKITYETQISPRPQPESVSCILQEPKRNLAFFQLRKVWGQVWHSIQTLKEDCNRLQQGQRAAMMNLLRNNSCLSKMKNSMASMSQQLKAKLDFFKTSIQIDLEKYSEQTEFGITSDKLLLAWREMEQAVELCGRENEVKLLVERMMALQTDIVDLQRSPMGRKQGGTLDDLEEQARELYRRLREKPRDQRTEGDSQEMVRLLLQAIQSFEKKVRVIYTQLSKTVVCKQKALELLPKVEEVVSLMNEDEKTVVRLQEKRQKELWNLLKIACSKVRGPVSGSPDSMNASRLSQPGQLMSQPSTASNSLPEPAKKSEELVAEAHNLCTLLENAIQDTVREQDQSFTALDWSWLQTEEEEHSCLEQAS
In words: Inhibition of IKK-beta by TR-FRET assay.

The target of assay [2] is T2, Inhibitor of nuclear factor kappa-B kinase subunit beta (Homo sapiens) (UniProt O14920).
T2 sequence (whole entry): T1 sequence (O14920 whole entry)
Kind of assay: Inhibition of IKK-beta at 10 uM by TR-FRET assay.

Molecule `N#Cc1c(C2CCCNC2)cc(-c2ccccc2O)nc1N` (stereo not drawn) gave an IC50 in assay [1] of 0.174 µM. In assay [1], `COc1ccc(C(=O)Nc2nnc(CC(=O)N/N=C/c3ccc(O)c(OC)c3)s2)cc1` had an IC50 of 10.8 µM. In addition, the inhibition in assay [2] turned out to be 53.1%. For `COc1cc(/C=N/NC(=O)Cc2nnc(NC(=O)c3ccc([N+](=O)[O-])cc3)s2)ccc1O`, in that order: 6.98 µM and 76.4%. Molecule `Cc1cc(N2CCC(O)CC2)nc2sc(C(N)=O)c(N)c12` yielded an IC50 in assay [1] below 1 µM. Molecule `CC1=NN(c2ccc(S(N)(=O)=O)cc2)C(=O)/C1=C/c1ccc(-c2ccc3c(c2)C(=O)NC3=O)o1` registered an IC50 in assay [1] of 6.7 µM. In assay [2], this molecule displayed an inhibition of 84.8%.

The values above are taken from ChEMBL document CHEMBL1165968, “IKKbeta inhibitors identification part II: ligand and structure-based virtual screening” (Bioorg Med Chem, 2010).
